Experimental data published in patent US20010009913A1, “Anxiety method” (priority 1999, published 2001).
Entries after “also recorded” stand apart in the source; their conditions may differ. Read-outs that look alike come from different tables or passages of the source. Each block holds one molecule with its values, some of them ahead of it.

What was measured:
human 5-HT1A receptor = biological target: T1, human 5-HT1A receptor (Homo sapiens, UniProt P08908); experiment: 5-HT1A receptor binding assay; conditions: for Ki: read-out: K1 value
T1 construct: expressed in transfected cells; host or cells: HEK293 cells
T1 sequence (P08908 1-422): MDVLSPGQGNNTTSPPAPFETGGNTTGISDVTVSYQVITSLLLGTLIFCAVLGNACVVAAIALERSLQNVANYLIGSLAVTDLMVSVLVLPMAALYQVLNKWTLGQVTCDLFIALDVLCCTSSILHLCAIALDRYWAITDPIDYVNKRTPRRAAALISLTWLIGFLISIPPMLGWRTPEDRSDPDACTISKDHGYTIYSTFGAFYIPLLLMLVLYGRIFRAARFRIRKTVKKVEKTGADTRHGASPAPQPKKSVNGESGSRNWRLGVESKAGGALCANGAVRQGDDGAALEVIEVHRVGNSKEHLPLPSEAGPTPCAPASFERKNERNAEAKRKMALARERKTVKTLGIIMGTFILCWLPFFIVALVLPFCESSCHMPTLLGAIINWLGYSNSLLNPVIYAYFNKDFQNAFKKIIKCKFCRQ
Experimental: Membranes are prepared for binding using the human 5-HT1A receptor expressed in HEK293 cells. Cells are collected and ruptured using a dounce homogenizer. The cells are spun at 18000xg for 10 minutes and the pellet is resuspended in assay buffer, frozen in liquid nitrogen and kept at −80° C. until the day of the assay.
A total of 30 ug protein is used per well. The assay is carried out in 96-deep-well plates. The assay buffer is 50 mM HEPES containing 2.5 mM MgCl2 and 2 mM EGTA. […] 10 mM serotonin serves as blocking agent to determine non-specific binding. The reaction is terminated by the addition of 1 ml of ice cold 50 mM HEPES buffer and rapid filtration through a Brandel Cell Harvester using Whatman GF/B filters. The filter pads are counted in an LKB Trilux liquid scintillation counter. IC50 values are determined using non-linear regression by Excel-fit.

dorsal raphe neurons [1] = experiment: Inhibition of dorsal raphe neuronal firing after systemic administration; type: in vivo; conditions: previous in-house testing, I.V. and intragastric, rats
Text: See: VanderMaelen, et al., Eur. J. Pharmacol., 129, pp. 123-30, 1986. While one metabolite, the structural fragment 1-(2-pyrimidinyl)piperazine, also known as 1-PP, [drawing 3]

rat pups = experiment: Rat pup isolation-induced ultrasonic vocalization test (vocalization and locomotor activity); type: in vivo; conditions: sc, 30 min prior to test; for ID50, dose predicted to reduce the number of ultrasonic calls by 50%: 9-11 day old rat pups, cold plate
Text: Ultrasonic vocalizations emitted by rat pups following isolation from their mother and littermates and subjected to a variety of environmental stimuli (e.g., cold temperature) has proven to be a sensitive method for assessing potential anxiolytic and anxiogenic compounds (Winslow and Insel, 1991, Psychopharmacology, 105:513-520). Psychoactive compounds purported to be anxiolytic suppress the frequency of ultrasonic calls whereas, calls are increased by drugs with anxiogenic properties. More importantly, the isolation-induced ultrasonic vocalization paradigm appears to be most sensitive for detecting anxiolytic properties across a broad spectrum of drug classes such as benzodiazepines, 5-HT reuptake inhibitors, 5-HT1A agonists as well as NMDA antagonists.
Harlan Sprague-Dawley rat pups (male and female) were housed in polycarbonate cages with the dam until 9-11 days old. Thirty minutes before testing, pups were removed from the dam, placed into a new cage with a small amount of home bedding and brought into the lab and placed under a light to maintain body temperature at 37° C. Pups were then weighed, sexed, marked and returned to the litter group until behavioral assessment. Testing took place in a Plexiglas recording chamber that contained a metal plate maintained at (18-20° C.) with a 5×5 cm grid drawn on the plate. A microphone was suspended 10 cm above the plate to record ultrasonic vocalizations. Ultrasonic calls were recorded using the Noldus UltraVox system providing on-line analysis of the frequency and duration of calls. The number of grid cells entered by the pup was also collected by visual scoring. […] Immediately following the collection of the baseline measures, pups were injected with vehicle or drug subcutaneously at the nape of the neck and returned to its littermates. […] Baseline differences and percent change from baseline for the frequency of ultrasonic vocalizations and grid cell crossings were analyzed using a one-way ANOVA. […]

[2] = Modified Vogel Conflict test; type: in vivo; conditions: earlier in-house testing
Text: Earlier in-house functional testing of BMY 28674 utilized an in vivo test method based on modification of the Vogel Conflict test, a simple reliable conflict procedure for testing antianxiety agents (see: Vogel, et al., Psychopharmacologia, (Berl.) 21, pp.1-7, 1971). […] No useful antianxiety activity has been ascribed to BMY 28674 previously.

[3] = Human pharmacokinetic study, oral buspirone BID for 25 days
dorsal raphe neurons [4] = conditions: VanderMaelen et al. 1986; cited from earlier work
[5] = Gammans et al. 1986; cited from earlier work
CYP3A4 = experiment: Inhibition of the metabolism of buspirone by ketoconazole in pooled HLM; conditions: ketoconazole concentrations up to 0.125 μM
[6] = membranes of HEK293 cells, 1 nM 3H-8-OH-DPAT, read-out: IC50
[7] = membranes of HEK293 cells, 1 nM 3H-8-OH-DPAT

SMILES: c1cnc(N2CCNCC2)nc1 [1-PP, 1-(2-pyrimidinyl)piperazine]
IC50 (human 5-HT1A receptor): > 1000 nM
binding / affinity at the 5-HT1A receptor (human 5-HT1A receptor): does not demonstrate binding
inhibition of dorsal raphe neuronal firing (dorsal raphe neurons [1]): weak inhibition

IC50 (human 5-HT1A receptor; [6]): 652 nM
Ki (human 5-HT1A receptor; [7]): 326 nM
SMILES: O=C1CC2(CCC(O)C2)CC(=O)N1CCCCN1CCN(c2ncccn2)CC1 (centres unmarked) [3-OH-buspirone (BMY 14295)]

IC50 (human 5-HT1A receptor; [6]): 928 nM
Ki (human 5-HT1A receptor; [7]): 464 nM
SMILES: O=C1CC2(CCCC2)CC(=O)N1CCCCN1CCN(c2ncc(O)cn2)CC1 [5-OH-buspirone (BMY 14131)]

SMILES: O=C1CC2(CCCC2)C(O)C(=O)N1CCCCN1CCN(c2ncccn2)CC1 (centres unmarked) [BMY 28674, 6-hydroxy-8-[4-[4-(2-pyrimidinyl)-piperazinyl]-butyl]-8-azaspiro[4.5]-7,9-dione]
IC50 (human 5-HT1A receptor; [6]): 114 nM
Ki (human 5-HT1A receptor; [7]): 57 nM
ID50, dose predicted to reduce the number of ultrasonic calls by 50% (rat pups): 0.13 mg/kg
ID50 dose estimated to reduce locomotor activity (rat pups; grid cell crossings): 0.41 mg/kg
antianxiety response in the Vogel test [2]: did not elicit an antianxiety response
blood concentration of BMY 28674 relative to 1-PP ([3]; after oral buspirone, human subjects): several-fold greater; also recorded: several-fold higher

SMILES: O=C1CC2(CCCC2)CC(=O)N1CCCCN1CCN(c2ncccn2)CC1 [Buspirone]
ID50, dose predicted to reduce the number of ultrasonic calls by 50% (rat pups): 0.10 mg/kg
inhibition of firing of dorsal raphe neurons (dorsal raphe neurons [4]): potently inhibits
variation of maximum plasma concentration between individuals [5]: up to 10 fold
concentration at 2 h ([3]; human, blood, po): < 1 ng/mL
safety and tolerability ([3]; multiple oral doses, five dose levels 5-30 mg BID, healthy adults, 25 days): safe and generally well tolerated
mean blood level concentration of buspirone ([3]; oral buspirone BID, at the higher doses, FIG. 3): 1 to 2 ng/mL

SMILES: CC(=O)N1CCN(c2ccc(OCC3COC(Cn4ccnc4)(c4ccc(Cl)cc4Cl)O3)cc2)CC1 (centres unmarked) [ketoconazole]
effect on buspirone metabolism (CYP3A4): No effect
